Experimental data from patent US6623953B1, “Enzymatic composition and method for seasoning wood” (ETS. Robert Stiernon S.A., priority 1998, dated 2003).

Tested on: phenol heterosidase activity of the enzymatic preparation
Test: Inhibition of the phenol heterosidase activity by phenol compounds
Assay type: biochemical
Details: concentration 1 g/l
Description: The measurement of phenol heterosidase enzymatic activity PeH is based on the release of carboxylic functions which lower the pH of the reaction medium. 9 mg of an aqueous extract of green oak are added, in a test tube, to 9 ml of a 0.1 M NaCl solution, pH 4.5, containing 1% of enzymatic preparation EP. A control tube is prepared under the same conditions, without enzymes. The pH is measured in the two tubes at time 0 (pHc0 for the control and pHe0 for the enzyme) and after 4 hours of incubation at 25° C. (pHc4 and pHe4, respectively). The optimum conditions were established beforehand and there is perfect correlation between the release of glucose and the drop in pH.
The phenol heterosidase activity is calculated from the equation:
PeH=[(pHc0−pHc4)−(pHe0−pHe4)/4]×100 (PeH being expressed in 10^−3 units of pH/ml/h)
In general, all the heteroside substrates are used by the enzymatic activities present. Only the condensed tannins from grape show inhibition of the phenol heterosidase activity.

PeH in presence of phenol compound: 100 10^−3 pH/ml/h
SMILES: O=C1OCC2OC(=O)c3cc(O)c(O)c(O)c3-c3c(O)c(O)c(O)c4c3C(=O)OC(C2OC(=O)c2cc(O)c(O)c(O)c2-c2c1cc(O)c(O)c2O)C1OC(=O)c2c-4c(O)c(O)c(O)c2C1O (stereo not shown) [vescalagin, Vescalagin]
